From patent US20080200454A1, “CARBON-LINKED TETRAHYDRO-PYRAZOLO-PYRIDINE MODULATORS OF CATHEPSIN S” (priority 2007, published 2008)
Read-outs that look alike come from different tables or passages of the source.

Biological target: Recombinant human cathepsin S (CatS) (Homo sapiens, UniProt P25774)
Experiment: Recombinant human cathepsin S (CatS) inhibition assay, fluorogenic substrate Z-Valine-Valine-Arginine-AMC;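 further: Baculovirus-expressed CatS in pH 5.0 sodium acetate buffer with DTT and NaCl, fluorescence read each minute over 20 min, inhibition derived from rate slope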
Procedure: Recombinant human cathepsin S (CatS) was expressed in the baculovirus system and purified in one step with a thiopropyl-sepharose column. 10-L yielded ˜700 mg of CatS and N-terminal sequencing confirmed identity. The assay is run in 150 mM sodium acetate pH 5.0 containing 1.5 mM DTT and 150 mM NaCl. […] Using 2 ng/well of CatS, the production of product is linear and yields-7-fold signal after 20 min with only 20% loss of substrate. Measurements are taken every min for 20 min. The rate is calculated from the slope of the increase in fluorescence and the percent inhibition is calculated from this.

Chain of Recombinant human cathepsin S (CatS) (P25774 115-331): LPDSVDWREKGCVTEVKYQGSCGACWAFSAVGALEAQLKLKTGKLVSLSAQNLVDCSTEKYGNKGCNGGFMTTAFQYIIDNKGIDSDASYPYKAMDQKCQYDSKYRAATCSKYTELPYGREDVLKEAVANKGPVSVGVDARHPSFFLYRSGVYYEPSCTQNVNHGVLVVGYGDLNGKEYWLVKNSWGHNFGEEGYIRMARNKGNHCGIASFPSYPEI

Row | IC50 | Compound | IC50 (CatS IC50)
1 | 5620 nM | CN(C)CCCCc1cc(-c2nn(CCCN3CCC(N4CCCC4=O)CC3)c3c2CN(S(C)(=O)=O)CC3)ccc1Cl [Example 312, 1-(1-{3-[3-{4-Chloro-3-[4-(dimethylamino)butyl]phenyl}-5-(methylsulfonyl)-4,5,6,7-tetrahydro-1H-pyrazolo[4,3-c]pyridin-1-yl]propyl}piperidin-4-yl)pyrrolidin-2-one] | 
2 | 1960 nM | CS(=O)(=O)N1CCc2c(c(-c3ccc(Cl)c(CCCO)c3)nn2CCCN2CCC(N3CCCC3=O)CC2)C1 [Example 313, 1-[1-(3-{3-[4-Chloro-3-(3-hydroxypropyl)phenyl]-5-(methylsulfonyl)-4,5,6,7-tetrahydro-1H-pyrazolo[4,3-c]pyridin-1-yl}propyl)piperidin-4-yl]pyrrolidin-2-one] | 
3 | 3660 nM | CN(C)CCCc1cc(-c2nn(CCCN3CCC(N4CCCC4=O)CC3)c3c2CN(S(C)(=O)=O)CC3)ccc1Cl [Example 314, 1-(1-{3-[3-{4-Chloro-3-[3-(dimethylamino)propyl]phenyl}-5-(methylsulfonyl)-4,5,6,7-tetrahydro-1H-pyrazolo[4,3-c]pyridin-1-yl]propyl}piperidin-4-yl)pyrrolidin-2-one] | 
4 | 1360 nM | CNCc1ccc(C#Cc2cc(-c3nn(CCCN4CCOCC4)c4c3CN(S(C)(=O)=O)CC4)ccc2Cl)cc1 [Example 315, 1-[4-({2-Chloro-5-[5-(methylsulfonyl)-1-(3-morpholin-4-ylpropyl)-4,5,6,7-tetrahydro-1H-pyrazolo[4,3-c]pyridin-3-yl]phenyl}ethynyl)phenyl]-N-methylmethanamine] | 
5 | 580 nM | CS(=O)(=O)N1CCc2c(c(-c3ccc(Cl)c(C#Cc4ccc(CNCCc5ccccc5)cc4)c3)nn2CCCN2CCOCC2)C1 [Example 316, N-{[4-({2-Chloro-5-[5-(methylsulfonyl)-1-(3-morpholin-4-ylpropyl)-4,5,6,7-tetrahydro-1H-pyrazolo[4,3-c]pyridin-3-yl]phenyl}ethynyl)phenyl]methyl}-2-phenylethanamine] | 
6 |  | CCN(CC)Cc1ccc(C#Cc2cc(-c3nn(CCCN4CCOCC4)c4c3CN(S(C)(=O)=O)CC4)ccc2Cl)cc1 [Example 317, N-{[4-({2-Chloro-5-[5-(methylsulfonyl)-1-(3-morpholin-4-ylpropyl)-4,5,6,7-tetrahydro-1H-pyrazolo[4,3-c]pyridin-3-yl]phenyl}ethynyl)phenyl]methyl}-N-ethylethanamine] | 2710 nM
7 |  | CC(C)CNCc1ccc(C#Cc2cc(-c3nn(CCCN4CCOCC4)c4c3CN(S(C)(=O)=O)CC4)ccc2Cl)cc1 [Example 318, N-{[4-({2-Chloro-5-[5-(methylsulfonyl)-1-(3-morpholin-4-ylpropyl)-4,5,6,7-tetrahydro-1H-pyrazolo[4,3-c]pyridin-3-yl]phenyl}ethynyl)phenyl]methyl}-2-methylpropan-1-amine] | 1150 nM
8 |  | CS(=O)(=O)N1CCc2c(c(-c3ccc(Cl)c(C#Cc4ccc(-c5nc6ccccc6[nH]5)cc4)c3)nn2CCCN2CCOCC2)C1 [Example 320, 3-(3-{[4-(1H-Benzimidazol-2-yl)phenyl]ethynyl}-4-chlorophenyl)-5-(methylsulfonyl)-1-(3-morpholin-4-ylpropyl)-4,5,6,7-tetrahydro-1H-pyrazolo[4,3-c]pyridine] | 90 nM
9 |  | CS(=O)(=O)N1CCc2c(c(-c3ccc(Cl)c(C#Cc4ccc(NCc5ccccc5)cc4)c3)nn2CCCN2CCOCC2)C1 [Example 321, 4-({2-Chloro-5-[5-(methylsulfonyl)-1-(3-morpholin-4-ylpropyl)-4,5,6,7-tetrahydro-1H-pyrazolo[4,3-c]pyridin-3-yl]phenyl}ethynyl)-N-(phenylmethyl)aniline] | 4650 nM
10 |  | CS(=O)(=O)N1CCc2c(c(-c3ccc(Cl)c(C#Cc4ccc(NCC#N)cc4)c3)nn2CCCN2CCOCC2)C1 [Example 322, {[4-({2-Chloro-5-[5-(methylsulfonyl)-1-(3-morpholin-4-ylpropyl)-4,5,6,7-tetrahydro-1H-pyrazolo[4,3-c]pyridin-3-yl]phenyl}ethynyl)phenyl]amino}acetonitrile] | 730 nM
11 |  | CS(=O)(=O)N1CCc2c(c(-c3ccc(Cl)c(C#Cc4ccc(CNC5CC5)cc4)c3)nn2CCCN2CCOCC2)C1 [Example 323, N-{[4-({2-Chloro-5-[5-(methylsulfonyl)-1-(3-morpholin-4-ylpropyl)-4,5,6,7-tetrahydro-1H-pyrazolo[4,3-c]pyridin-3-yl]phenyl}ethynyl)phenyl]methyl}cyclopropanamine] | 750 nM
12 |  | CS(=O)(=O)N1CCc2c(c(-c3ccc(Cl)c(C#Cc4ccc(CNC5CCC5)cc4)c3)nn2CCCN2CCOCC2)C1 [Example 324, N-{[4-({2-Chloro-5-[5-(methylsulfonyl)-1-(3-morpholin-4-ylpropyl)-4,5,6,7-tetrahydro-1H-pyrazolo[4,3-c]pyridin-3-yl]phenyl}ethynyl)phenyl]methyl}cyclobutanamine] | 1340 nM
13 |  | CS(=O)(=O)N1CCc2c(c(-c3ccc(Cl)c(C#Cc4ccc(CNC5CCCC5)cc4)c3)nn2CCCN2CCOCC2)C1 [Example 325, N-{[4-({2-Chloro-5-[5-(methylsulfonyl)-1-(3-morpholin-4-ylpropyl)-4,5,6,7-tetrahydro-1H-pyrazolo[4,3-c]pyridin-3-yl]phenyl}ethynyl)phenyl]methyl}cyclopentanamine] | 1450 nM
14 |  | CS(=O)(=O)N1CCc2c(c(-c3ccc(Cl)c(C#Cc4ccc(CNC5CCCCC5)cc4)c3)nn2CCCN2CCOCC2)C1 [Example 326, N-{[4-({2-Chloro-5-[5-(methylsulfonyl)-1-(3-morpholin-4-ylpropyl)-4,5,6,7-tetrahydro-1H-pyrazolo[4,3-c]pyridin-3-yl]phenyl}ethynyl)phenyl]methyl}cyclohexanamine] | 1370 nM
15 |  | CS(=O)(=O)N1CCc2c(c(-c3ccc(Cl)c(C#Cc4ccc(NCCc5ccccc5)cc4)c3)nn2CCCN2CCOCC2)C1 [Example 327, 4-({2-Chloro-5-[5-(methylsulfonyl)-1-(3-morpholin-4-ylpropyl)-4,5,6,7-tetrahydro-1H-pyrazolo[4,3-c]pyridin-3-yl]phenyl}ethynyl)-N-(2-phenylethyl)aniline] | 760 nM
16 |  | CS(=O)(=O)N1CCc2c(c(-c3ccc(Cl)c(C#Cc4ccc(CNCc5ccc(Cl)cc5)cc4)c3)nn2CCCN2CCC(N3CCCC3=O)CC2)C1 [Example 328, 1-(1-{3-[3-(4-Chloro-3-{[4-({[(4-chlorophenyl)methyl]amino}methyl)phenyl]ethynyl}phenyl)-5-(methylsulfonyl)-4,5,6,7-tetrahydro-1H-pyrazolo[4,3-c]pyridin-1-yl]propyl}piperidin-4-yl)pyrrolidin-2-one] | 20 nM
17 |  | CC(C)(C)OC(=O)NC1CCN(CCCn2nc(-c3ccc(Cl)c(C#Cc4ccc(CNCc5ccc(Cl)cc5)cc4)c3)c3c2CCN(S(C)(=O)=O)C3)CC1 [Example 329, 1,1-Dimethylethyl (1-{3-[3-(4-chloro-3-{[4-({[(4-chlorophenyl)methyl]amino}methyl)phenyl]ethynyl}phenyl)-5-(methylsulfonyl)-4,5,6,7-tetrahydro-1H-pyrazolo[4,3-c]pyridin-1-yl]propyl}piperidin-4-yl)carbamate] | 30 nM
18 |  | CS(=O)(=O)N1CCc2c(c(-c3ccc(Cl)c(C#Cc4ccc(CNCc5ccc(Cl)cc5)cc4)c3)nn2CCCN2CCC(O)CC2)C1 [Example 330, 1-{3-[3-(4-Chloro-3-{[4-({[(4-chlorophenyl)methyl]amino}methyl)phenyl]ethynyl}phenyl)-5-(methylsulfonyl)-4,5,6,7-tetrahydro-1H-pyrazolo[4,3-c]pyridin-1-yl]propyl}piperidin-4-ol] | 90 nM
19 |  | CS(=O)(=O)N1CCc2c(c(-c3ccc(Cl)c(C#Cc4ccc(CNCc5ccc(Cl)cc5)cc4)c3)nn2CCCN2CCC(N)CC2)C1 [Example 331, 1-{3-[3-(4-Chloro-3-{[4-({[(4-chlorophenyl)methyl]amino}methyl)phenyl]ethynyl}phenyl)-5-(methylsulfonyl)-4,5,6,7-tetrahydro-1H-pyrazolo[4,3-c]pyridin-1-yl]propyl}piperidin-4-amine] | 170 nM
20 | 190 nM | CS(=O)(=O)N1CCc2c(c(-c3ccc(Cl)c(C#Cc4ccc(CNCc5ccc(Cl)cc5)cc4)c3)nn2CC(O)CN2CCOCC2)C1 (stereo not drawn) [Example 332, 1-[3-(4-Chloro-3-{[4-({[(4-chlorophenyl)methyl]amino}methyl)phenyl]ethynyl}phenyl)-5-(methylsulfonyl)-4,5,6,7-tetrahydro-1H-pyrazolo[4,3-c]pyridin-1-yl]-3-morpholin-4-ylpropan-2-ol] | 
21 |  | CS(=O)(=O)N1CCc2c(c(-c3ccc(Cl)c(C#Cc4ccc(CNCc5ccc(Cl)cc5)cc4)c3)nn2CCCN2CCCC2)C1 [Example 333, 1-[4-({2-Chloro-5-[5-(methylsulfonyl)-1-(3-pyrrolidin-1-ylpropyl)-4,5,6,7-tetrahydro-1H-pyrazolo[4,3-c]pyridin-3-yl]phenyl}ethynyl)phenyl]-N-[(4-chlorophenyl)methyl]methanamine] | 180 nM
22 | 30 nM | CCOC(=O)C1CCN(CCCn2nc(-c3ccc(Cl)c(C#Cc4ccc(CNCc5ccc(Cl)cc5)cc4)c3)c3c2CCN(S(C)(=O)=O)C3)CC1 [Example 334, Ethyl 1-{3-[3-(4-chloro-3-{[4-({[(4-chlorophenyl)methyl]amino}methyl)phenyl]ethynyl}phenyl)-5-(methylsulfonyl)-4,5,6,7-tetrahydro-1H-pyrazolo[4,3-c]pyridin-1-yl]propyl}piperidine-4-carboxylate] | 
23 | 60 nM | CS(=O)(=O)N1CCc2c(c(-c3ccc(Cl)c(C#Cc4ccc(CNCc5ccc(Cl)cc5)cc4)c3)nn2CCCN2CCC3(CC2)OCCO3)C1 [Example 335, 1-{4-[(2-Chloro-5-{1-[3-(1,4-dioxa-8-azaspiro[4.5]dec-8-yl)propyl]-5-(methylsulfonyl)-4,5,6,7-tetrahydro-1H-pyrazolo[4,3-c]pyridin-3-yl}phenyl)ethynyl]phenyl}-N-[(4-chlorophenyl)methyl]methanamine] | 
24 |  | CS(=O)(=O)N1CCc2c(c(-c3ccc(Cl)c(C#Cc4ccc(CNCc5ccc(Cl)cc5)cc4)c3)nn2CCCN2CCC(C(=O)O)CC2)C1 [Example 336, 1-{3-[3-(4-Chloro-3-{[4-({[(4-chlorophenyl)methyl]amino}methyl)phenyl]ethynyl}phenyl)-5-(methylsulfonyl)-4,5,6,7-tetrahydro-1H-pyrazolo[4,3-c]pyridin-1-yl]propyl}piperidine-4-carboxylic acid] | 150 nM
